Reference: patent publication US7622271B2, “Identification of aging genes through large-scale analysis” (University of Washington, priority 2004, dated 2009)
Like-named read-outs stand apart in the source and are kept apart here.

System: yeast cells
Conditions: for life span: yeast replicative life span
Method: FIG. 2 illustrates replicative life span (“RLS”) analysis in yeast. […] A mother cell is a yeast cell that has produced one or more daughter cells. […] The total number of mitotic divisions completed by a given mother cell is the replicative life span for that mother cell. One indicator of senescence in yeast is the inability to produce daughter cells.
A large-scaled, life-span analysis is performed as follows. Approximately three days before initiating a life-span-determination assay, a set of 95 strains contained in a yeast alpha-haploid-deletion collection (Open Biosystems), is transferred to a 96-well plate containing YPDagar using a FX robot, so that each strain occupies one well of a 96-well plate. Concurrently, “wildtype” reference cells (BY4742) are plated within an empty well of the 96-well test plate. For 1-2 days, plated cells are allowed to grow on rich medium, such as YPD, at 30° C. Cells are patched onto life-span-measuring plates containing YPD so that approximately 12 strains are plated per plate the night, or approximately 12 hours, before initiating life-span analysis. A life-span experiment is initiated by gridding a region of the plate distal to growing cells, to which 5 cells of each strain of 12 strains are transferred by micromanipulation. Cells are incubated for two hours at 30° C. Then, virgin daughter cells of each deletion variant cell are selected, and original mother cells are removed. Such virgin daughter cells are monitored for de novo production of daughters at 2-3 hour intervals. Produced daughters are individually removed, and tabulated. Mother cells are placed back at 30° C. to allow continued growth. During evening hours, cells are moved to 4° C. so that the cell division rate is reduced to one cell division per evening. The following day, cells are placed at 30° C. to resume growth. This process is continued for a period of time, approximately two weeks, to allow cells of each variant strain to exhaust its proliferative potential. The total number of daughter cells produced by each mother variant cell is tabulated, and determined RLS values are entered into a database.

## CS(=N)(=O)CC[C@H](N)C(=O)O (stereo partly drawn) [MSX, methionine sulfoximine]
50 uM, preliminary experiments
  life span: significantly increases life span
100 uM, preliminary experiments
  life span: significantly increases life span
1 mM (maximal life span extension), preliminary experiments
  increase in mean replicative life span: 25-30%
1 mM, preliminary experiments
  life span: significantly increases life span
2.5 mM, preliminary experiments
  life span: significantly increases life span
Exposure of yeast cells to MSX
  replicative life span in yeast: extends replicative life span
